The values that follow come from patent publication US6482982B1, “Halogenated antituberculosis agents” (University of Sciences of Philadelphia, priority 2001, dated 2002).

The subject of assay [1] is rifampin-resistant Mycobacterium tuberculosis (ATCC 35838). The experiment in a line: microbe, parasite or virus in culture. The assay is classed as cell-based. As to conditions: ATCC35838, Alamar assay.
For assay [2], the system named is ciprofloxacin-resistant Mycobacterium tuberculosis. Nature of the assay: microbe, parasite or virus in culture. The assay is classed as cell-based. The following applies: read-out: MIC CIP-R.
Assay [3] concerns ethambutol-resistant Mycobacterium tuberculosis. Nature of the assay: microbe, parasite or virus in culture. As to conditions: read-out: MIC EMB-R. The assay is classed as cell-based.
The subject of the next assay is M. tuberculosis H37Rv. Nature of the assay: MIC determination by Microplate Alamar Blue Assay (MABA) against H37Rv. The assay is classed as cell-based, Mycobacterium tuberculosis. The following applies: Mycobacterium tuberculosis, H37RV; Alamar assay, confirmatory testing alongside drug-resistant strains; read-out: MIC H37Rv. On the technique in general: Resazurin is reduced to fluorescent resorufin, in cell work by metabolically active cells.

Assay [4] relates to isoniazid-resistant Mycobacterium tuberculosis (ATCC 35822). The experiment in a line: microbe, parasite or virus in culture. The assay is classed as cell-based. As to conditions: ATCC35822, read-out: MIC INH-R.
In assay [5] the test system is kanamycin-resistant Mycobacterium tuberculosis. The experiment in a line: microbe, parasite or virus in culture. As to conditions: read-out: MIC KM-R. The assay is classed as cell-based.
For assay [6], the system named is single-drug resistant M. tuberculosis strains. The assay is classed as cell-based, Mycobacterium tuberculosis. The following applies: judged from the ratios in Table 5.

Molecules are shown by their SMILES. ≈ marks a conversion by molar mass, not a printed value.

Turning to `Nc1cc(O)c(C(=O)O)cc1F` [Compound 12, 4-Amino-5-fluorosalicylic Acid], the MIC in assay [1] is 6.25 µg/mL (≈ 36.5 µM); in assay [2] it was 6.25 µg/mL (≈ 36.5 µM); in assay [3], at most 3.13 µg/mL; in the assay on M. tuberculosis H37Rv, at most 3.13 µg/mL; in assay [4], 25 µg/mL (≈ 146 µM); in assay [5], 6.25 µg/mL (≈ 36.5 µM).

For the molecule `CC(=O)Nc1ccc(/C=N/NC(N)=S)cc1F` [Compound 16, 4-Acetamido-3-fluorobenzaldehyde thiosemicarbazone], the MIC was at most 0.1 µg/mL in assay [1]; at most 0.1 µg/mL in assay [2]; 0.2 µg/mL (≈ 0.787 µM) in assay [3]; at most 0.1 µg/mL with M. tuberculosis H37Rv; at most 0.1 µg/mL in assay [4]; at most 0.1 µg/mL in assay [5]. The “cross-resistance with isoniazid, rifampin, ethambutol, kanamycin or ciprofloxacin” value in assay [6] was “no cross-resistance”.
